Test: Chemical stability of AOL in cyclodextrin solutions by HPLC
Assay type: physicochemical
Settings: associated with HP-β-CD, conditions of Example 4

COc1ccc(-c2cc(=S)ss2)cc1 [AOL, 5-(4-methoxyphenyl)-3H-1,2-dithiole-3-thione]
chemical stability (HPLC impurities): chemical instability

Source: US20210308173A1, “PHARMACEUTICAL COMPOSITION COMPRISING CYCLODEXTRIN COMPLEXES OF ANETHOLE TRITHIONE OR DERIVATIVES THEREOF” (priority 2018, published 2021)
